In ChEMBL document CHEMBL5665443, “Enzyme Inhibitor Single Concentration assay results for EUbOPEN Chemogenomics Library” (2024):

Key:
[1] = molecular target: Uracil-DNA glycosylase (Homo sapiens) (UniProt P13051); conditions: Hit No;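 further: UNG excision on a quenched double-stranded DNA oligo probe, with APE1 added for strand incision and turnover, read as fluorescence at 594 nm as strands separate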
Description: Inhibition of UNG by quantifying inhibition of UNG-mediated cleavage and dissociation of quenched duplex DNA oligonucleotides, measured as fluorescence at 594 nm. To generate a functional strand incision and increase turn-over this assay is coupled to APE1.

[2] = molecular target: Endonuclease 8-like 1 (Homo sapiens) (UniProt Q96FI4); conditions: Hit No;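 further: fluorescence at 594 nm from quenched duplex DNA oligonucleotides released by NEIL1 cleavage and strand separation, reported as reduction of this enzyme activity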
Description: Inhibition of NEIL1 by quantifying inhibition of NEIL1-mediated cleavage and dissociation of quenched duplex DNA oligonucleotides, measured as fluorescence at 594 nm.

[3] = molecular target: T1, Endonuclease III-like protein 1 (Homo sapiens) (UniProt P78549); conditions: Hit No;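 further: enzyme assay tracking NTHL1 cutting and release of a quenched double-stranded DNA oligo substrate, read as fluorescence at 594 nm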
T1 sequence (whole entry): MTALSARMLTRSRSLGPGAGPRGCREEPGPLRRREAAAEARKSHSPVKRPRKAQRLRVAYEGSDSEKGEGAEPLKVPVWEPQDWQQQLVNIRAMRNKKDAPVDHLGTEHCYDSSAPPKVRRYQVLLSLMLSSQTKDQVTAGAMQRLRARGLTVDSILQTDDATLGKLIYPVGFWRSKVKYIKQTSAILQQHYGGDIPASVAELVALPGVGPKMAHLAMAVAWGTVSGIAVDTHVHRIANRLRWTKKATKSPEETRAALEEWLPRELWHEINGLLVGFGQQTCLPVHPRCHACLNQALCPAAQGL
Description: Inhibition of NTHL1 by quantifying inhibition of NTHL1-mediated cleavage and dissociation of quenched duplex DNA oligonucleotides, measured as fluorescence at 594 nm.

[4] = molecular target: T2, Single-strand selective monofunctional uracil DNA glycosylase (Homo sapiens) (UniProt Q53HV7); conditions: Hit No;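 further: enzymatic SMUG1 assay coupled with APE1, reading fluorescence at 594 nm released when a quenched double-stranded DNA oligonucleotide substrate is cleaved and separated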
T2 sequence (whole entry): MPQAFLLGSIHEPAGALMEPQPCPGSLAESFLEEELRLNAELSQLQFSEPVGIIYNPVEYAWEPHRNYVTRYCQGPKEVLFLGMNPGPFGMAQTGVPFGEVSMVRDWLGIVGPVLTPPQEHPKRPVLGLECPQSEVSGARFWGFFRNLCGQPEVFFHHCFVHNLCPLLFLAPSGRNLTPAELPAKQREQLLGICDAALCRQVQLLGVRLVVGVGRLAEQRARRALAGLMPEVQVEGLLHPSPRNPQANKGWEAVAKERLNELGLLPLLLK
Description: Inhibition of SMUG1 by quantifying inhibition of SMUG1-mediated cleavage and dissociation of quenched duplex DNA oligonucleotides, measured as fluorescence at 594 nm. To generate a functional strand incision and increase turn-over this assay is coupled to APE1.

[5] = molecular target: T3, Endonuclease 8-like 2 (Homo sapiens) (UniProt Q969S2); conditions: Hit No;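 further: fluorescence at 594 nm reports NEIL2 cutting and release of a quenched double-stranded DNA oligo substrate, reduced signal read as inhibition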
T3 sequence (whole entry): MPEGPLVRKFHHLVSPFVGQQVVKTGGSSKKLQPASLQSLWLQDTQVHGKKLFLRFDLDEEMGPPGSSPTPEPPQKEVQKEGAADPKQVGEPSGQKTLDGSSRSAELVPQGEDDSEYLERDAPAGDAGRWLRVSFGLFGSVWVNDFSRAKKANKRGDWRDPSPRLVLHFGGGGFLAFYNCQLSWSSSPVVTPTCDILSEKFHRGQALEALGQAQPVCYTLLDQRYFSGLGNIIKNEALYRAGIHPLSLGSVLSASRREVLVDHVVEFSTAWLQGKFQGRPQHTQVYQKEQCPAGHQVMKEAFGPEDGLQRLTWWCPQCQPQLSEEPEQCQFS
Description: Inhibition of NEIL2 by quantifying inhibition of NEIL2-mediated cleavage and dissociation of quenched duplex DNA oligonucleotides, measured as fluorescence at 594 nm.

[6] = molecular target: G/T mismatch-specific thymine DNA glycosylase (Homo sapiens) (UniProt Q13569); conditions: Compound Concentration 10.0 uM, Hit No;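 further: human TDG cleavage of quenched duplex DNA oligonucleotides coupled to APE1, strand release read as fluorescence at 594 nm, inhibition of TDG activity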
Description: Inhibition of TDG by quantifying inhibition of TDG-mediated cleavage and dissociation of quenched duplex DNA oligonucleotides, measured as fluorescence at 594 nm. To generate a functional strand incision and increase turn-over this assay is coupled to APE1.

[7] = molecular target: N-glycosylase/DNA lyase (Homo sapiens) (UniProt O15527); conditions: Hit No;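 further: OGG1 cleavage of a quenched duplex DNA oligonucleotide, coupled to APE1 for strand incision, read as fluorescence at 594 nm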
Chain of N-glycosylase/DNA lyase (Homo sapiens) (O15527 whole entry): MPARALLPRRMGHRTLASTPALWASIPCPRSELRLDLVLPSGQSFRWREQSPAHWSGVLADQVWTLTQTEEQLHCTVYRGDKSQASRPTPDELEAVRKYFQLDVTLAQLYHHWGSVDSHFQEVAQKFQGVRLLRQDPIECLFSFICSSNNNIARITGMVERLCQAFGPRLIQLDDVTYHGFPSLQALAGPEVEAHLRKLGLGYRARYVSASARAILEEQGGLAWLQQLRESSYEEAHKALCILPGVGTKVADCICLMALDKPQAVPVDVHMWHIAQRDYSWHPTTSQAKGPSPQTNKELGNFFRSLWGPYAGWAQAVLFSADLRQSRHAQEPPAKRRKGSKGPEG
Description: Inhibition of OGG1 by quantifying inhibition of OGG1-mediated cleavage and dissociation of quenched duplex DNA oligonucleotides, measured as fluorescence at 594 nm. To generate a functional strand incision and increase turn-over this assay is coupled to APE1.

Chain of Uracil-DNA glycosylase (Homo sapiens) (P13051 whole entry): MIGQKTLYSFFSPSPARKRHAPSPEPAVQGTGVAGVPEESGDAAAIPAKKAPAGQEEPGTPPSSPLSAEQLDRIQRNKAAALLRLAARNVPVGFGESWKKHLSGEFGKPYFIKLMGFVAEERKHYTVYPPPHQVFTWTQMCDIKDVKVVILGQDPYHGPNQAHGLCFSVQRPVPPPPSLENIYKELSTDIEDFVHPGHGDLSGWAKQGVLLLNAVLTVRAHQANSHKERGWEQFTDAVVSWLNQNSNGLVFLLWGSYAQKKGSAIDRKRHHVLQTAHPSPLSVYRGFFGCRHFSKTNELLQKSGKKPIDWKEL
Chain of Endonuclease 8-like 1 (Homo sapiens) (Q96FI4 whole entry): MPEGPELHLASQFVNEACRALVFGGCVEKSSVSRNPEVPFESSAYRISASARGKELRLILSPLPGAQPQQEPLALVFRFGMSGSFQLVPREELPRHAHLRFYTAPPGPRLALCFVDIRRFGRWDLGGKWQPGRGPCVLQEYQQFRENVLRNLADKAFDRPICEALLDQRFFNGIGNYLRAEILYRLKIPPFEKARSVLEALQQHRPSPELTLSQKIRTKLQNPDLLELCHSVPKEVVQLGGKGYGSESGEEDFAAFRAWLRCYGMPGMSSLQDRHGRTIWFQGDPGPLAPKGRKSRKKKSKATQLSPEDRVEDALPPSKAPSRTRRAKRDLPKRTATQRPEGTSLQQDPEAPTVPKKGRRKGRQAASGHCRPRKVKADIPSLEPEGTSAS
Chain of G/T mismatch-specific thymine DNA glycosylase (Homo sapiens) (Q13569 whole entry): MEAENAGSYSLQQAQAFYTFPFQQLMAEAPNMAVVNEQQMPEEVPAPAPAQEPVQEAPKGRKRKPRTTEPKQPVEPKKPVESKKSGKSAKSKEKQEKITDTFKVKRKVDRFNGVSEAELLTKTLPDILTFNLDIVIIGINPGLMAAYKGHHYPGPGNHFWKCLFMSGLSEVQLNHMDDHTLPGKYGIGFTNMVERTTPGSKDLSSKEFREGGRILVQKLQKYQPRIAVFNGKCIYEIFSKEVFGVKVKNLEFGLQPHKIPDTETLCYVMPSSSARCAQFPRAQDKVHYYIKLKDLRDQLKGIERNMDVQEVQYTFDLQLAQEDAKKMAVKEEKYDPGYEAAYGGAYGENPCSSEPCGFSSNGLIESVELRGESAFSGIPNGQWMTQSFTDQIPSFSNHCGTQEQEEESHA

Row | Compound | inhibition ([1]; Compound Concentration 10.0 uM) | inhibition ([2]; Compound Concentration 10.0 uM) | inhibition ([3]; Compound Concentration 10.0 uM) | inhibition ([4]; Compound Concentration 10.0 uM) | inhibition ([5]; Compound Concentration 10.0 uM) | inhibition [6] | inhibition ([7]; Compound Concentration 10.0 uM) | inhibition ([1]; Compound Concentration 1.0 uM) | inhibition ([2]; Compound Concentration 1.0 uM) | inhibition ([3]; Compound Concentration 1.0 uM) | inhibition ([4]; Compound Concentration 1.0 uM) | inhibition ([5]; Compound Concentration 1.0 uM) | inhibition ([7]; Compound Concentration 1.0 uM)
1 | COc1cc(OC)c(NC(=O)c2ccc(Cc3cc4c(cc3C)C(C)(C)CCC4(C)C)o2)c(OC)c1 | -5.24% | 7.51% | 19.5% | -2.6% | 14.7% | 1.84% | 2.66% |  |  |  |  |  | 
2 | O=c1c2cccn2c2ccccc2n1CCCN1CCC(c2ccc(Cl)cc2)CC1 | -8.09% | 10.5% | 6.32% | 5.73% | 7.75% | 2.78% | -2.48% |  |  |  |  |  | 
3 | CC[C@@H]1CN(C(=O)NCC(F)(F)F)C[C@@H]1c1cnc2cnc3[nH]ccc3n12 | 1.27% | 4.1% | 2.88% | 20.8% |  | 36.4% | 0.361% |  |  |  |  |  | 
4 | NCCCNCCCCNCCC(=O)NCCCCCNC(=O)[C@H](CC(N)=O)NC(=O)Cc1ccc(O)cc1O | -1.11% | 0.898% | -0.258% | -7.3% | -3.66% |  | 0.0747% |  |  |  |  |  | 
5 | COc1ncc(F)cc1CNc1ccc(Cc2c[nH]c3ncc(C)cc23)c(F)n1 | 6.92% | 1.33% | -7.58% | 18.6% | 2.39% | 37.9% | 5.69% |  |  |  |  |  | 
6 | COCC(=O)NC/C=C/c1ccc2ncnc(Nc3ccc(Oc4ccc(C)nc4)c(C)c3)c2c1 | 9.27% | -8.05% | 1.48% | 21.7% |  | 11.2% | 5.64% |  |  |  |  |  | 
7 | CCCCCCCCc1ccc(CCC(N)(CO)CO)cc1 |  | 4.69% | -6.87% | 1.32% | -1.98% | 26.4% | -9.6% |  |  |  |  |  | 
8 | OC1(c2ccc(Cl)cc2)CCN(Cc2c[nH]c3ccccc23)CC1 | -8.06% | -5.1% | 7.05% | -1.92% | 5.51% | 17.2% | -9.04% |  |  |  |  |  | 
9 | Cn1cc(C2=C(c3cn(C4CCN(Cc5ccccn5)CC4)c4ccccc34)C(=O)NC2=O)c2ccccc21 |  |  |  |  |  |  |  | -3.81% | -7.52% | 2.88% | 6.08% | -6.23% | -2.56%
10 | C[C@@H](O[C@H]1OCCN(Cc2n[nH]c(=O)[nH]2)[C@H]1c1ccc(F)cc1)c1cc(C(F)(F)F)cc(C(F)(F)F)c1 | -3.75% | 5.88% | -1.01% | -5.17% | 8.5% | 0.716% | -7.13% |  |  |  |  |  | 
11 | Cc1c(C(=O)Nc2cccc(C(F)(F)F)c2)cc(-c2ccccc2)n1CCCN1CCOCC1 | -3.84% | 0.00926% | -7.69% | 6.03% |  |  | -6.32% |  |  |  |  |  | 
12 | FC(F)c1nc2ccccc2n1-c1nc(N2CCOCC2)nc(N2CCOCC2)n1 | -3.48% |  | 7.06% | 27% |  | 32.9% | 3.08% |  |  |  |  |  | 
13 | Cc1onc(O)c1CC(N)C(=O)O (stereo unspecified) | -3.91% | -4.58% | -3.56% | -3.23% | -2.64% | 5.29% | -2.69% |  |  |  |  |  | 
14 | CN(c1ncccc1CNc1ccnc(-c2nc3c(F)c(Cl)ccc3[nH]2)n1)S(C)(=O)=O | -1.37% | 1.59% | 9.15% | 9.82% | -8.38% | 35.5% | -6.69% |  |  |  |  |  | 
15 | C=CCN1C[C@H](C)N([C@H](c2ccc(C(=O)N(CC)CC)cc2)c2cccc(O)c2)C[C@H]1C |  | -6.58% | 1.92% | 10.6% | 6.25% | 4.87% | -6.71% |  |  |  |  |  | 
16 | CC(C)CCC[C@@H](C)[C@H]1CC[C@H]2[C@@H]3[C@H](O)C=C4C[C@@H](O)CC[C@]4(C)[C@H]3CC[C@]12C |  | 8.25% | -1.74% | -3.67% | -6.22% | -0.558% | -2.82% |  |  |  |  |  | 
